Results as given in PubChem BioAssay AID256 (DTP/NCI, 2004).
Several values for one entry are separate records, joined by “and”; a condition that tells them apart may be missing. Equal entries are not always repeated. Inconclusive results and toxic doses are left out. Rule for the calls: active = survival T/C of 150% or more; inactive = T/C below 125% in these data.

Test system: CD2F1 mice, L1210 leukemia ip, survival T/C
Assay: NCI In Vivo Anticancer Drug Screen. Data for tumor model L1210 Leukemia (intraperitoneal) in CD2F1 (CDF1) mice
Settings: higher = longer survival
In short: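 Read-out first: treated-group measurement over vehicle-control measurement, expressed as a ratio. Animals bore a transplanted tumor line and were dosed with compound or vehicle.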

[1] = endpoint: mean survival time, dose: 12.5 mg/kg/injection, schedule: Q04DX003 (ip), vehicle: saline with Tween-80
[2] = endpoint: mean survival time, dose: 25.0 mg/kg/injection, schedule: Q04DX003 (ip), vehicle: saline with Tween-80
[3] = endpoint: mean survival time, dose: 50.0 mg/kg/injection, schedule: Q04DX003 (ip), vehicle: saline with Tween-80
[4] = endpoint: mean survival time, dose: 100.0 mg/kg/injection, schedule: Q04DX003 (ip), vehicle: saline with Tween-80
[5] = endpoint: mean survival time, dose: 100.0 mg/kg/injection, schedule: Q01DX009 (ip), vehicle: saline with Tween-80
[6] = endpoint: mean survival time, dose: 200.0 mg/kg/injection, schedule: Q01DX009 (ip), vehicle: saline with Tween-80
[7] = endpoint: mean survival time, dose: 400.0 mg/kg/injection, schedule: Q01DX009 (ip), vehicle: saline with Tween-80
[8] = endpoint: mean survival time, dose: 100.0 mg/kg/injection, schedule: Q04DX002 (ip), vehicle: saline
[9] = endpoint: mean survival time, dose: 200.0 mg/kg/injection, schedule: Q04DX002 (ip), vehicle: saline
[10] = endpoint: mean survival time, dose: 400.0 mg/kg/injection, schedule: Q04DX002 (ip), vehicle: saline
[11] = endpoint: mean survival time, dose: 25.0 mg/kg/injection, schedule: Q01DX009 (ip), vehicle: saline with Tween-80
[12] = endpoint: mean survival time, dose: 50.0 mg/kg/injection, schedule: Q01DX009 (ip), vehicle: saline with Tween-80
[13] = endpoint: mean survival time, dose: 200.0 mg/kg/injection, schedule: Q04DX003 (ip), vehicle: saline with Tween-80
[14] = endpoint: mean survival time, dose: 100.0 mg/kg/injection, schedule: Q04DX003 (ip), vehicle: acetone
[15] = endpoint: mean survival time, dose: 200.0 mg/kg/injection, schedule: Q04DX003 (ip), vehicle: acetone
[16] = endpoint: mean survival time, dose: 400.0 mg/kg/injection, schedule: Q04DX003 (ip), vehicle: acetone
[17] = endpoint: mean survival time, dose: 100.0 mg/kg/injection, schedule: Q04DX002 (ip), vehicle: saline with Tween-80
[18] = endpoint: mean survival time, dose: 200.0 mg/kg/injection, schedule: Q04DX002 (ip), vehicle: saline with Tween-80
[19] = endpoint: mean survival time, dose: 100.0 mg/kg/injection, schedule: Q01DX009 (ip), vehicle: saline

Measured: T/C

O=C(NCc1ccccc1)C1C2CC3OC(=O)C1C3C2 (configuration not stated)
inactive: [1] 112 % of control | endpoint: mean survival time, dose: 12.5 mg/kg/injection, schedule: Q04DX003 (ip), vehicle: saline 106 % of control | [2] 114 % of control | endpoint: mean survival time, dose: 25.0 mg/kg/injection, schedule: Q04DX003 (ip), vehicle: saline 108 % of control | [3] 114 % of control | endpoint: mean survival time, dose: 50.0 mg/kg/injection, schedule: Q04DX003 (ip), vehicle: saline 110 % of control | [4] 114 % of control | endpoint: mean survival time, dose: 100.0 mg/kg/injection, schedule: Q04DX003 (ip), vehicle: saline 108 % of control

C=C1C(=O)OCC1C(=O)O (configuration not stated)
inactive: endpoint: mean survival time, dose: 4.0 mg/kg/injection, schedule: Q01DX009 (ip), vehicle: saline 97 % of control and 106 % of control | endpoint: mean survival time, dose: 8.0 mg/kg/injection, schedule: Q01DX009 (ip), vehicle: saline 96 % of control and 101 % of control | endpoint: mean survival time, dose: 16.0 mg/kg/injection, schedule: Q01DX009 (ip), vehicle: saline 101 % of control and 110 % of control | endpoint: mean survival time, dose: 32.0 mg/kg/injection, schedule: Q01DX009 (ip), vehicle: saline 104 % of control and 110 % of control | endpoint: mean survival time, dose: 64.0 mg/kg/injection, schedule: Q01DX009 (ip), vehicle: saline 88 % of control

Cc1cc(N2CCC(N3CCCC3)CC2)nc(/N=C(\N)Nc2ccc(Cl)c(Cl)c2)n1
inactive: [1] 98 % of control | [2] 101 % of control | [3] 86 % of control

COc1ccccc1NC(=O)c1ccccc1
inactive: [5] 98 % of control | [6] 114 % of control | [7] 104 % of control

CN(C)C(=O)C1C2C=CC(CCC2)C1C(=O)N(C)C (configuration not stated)
inactive: [8] 91 % of control | [9] 88 % of control | [10] 91 % of control

O=C(O)c1cc2c(Cl)cccc2[nH]1
inactive: [11] 109 % of control | [12] 98 % of control | [5] 94 % of control | [4] 106 % of control

CCC1(CC)C=CCC/C1=N\NS(=O)(=O)c1ccc(C)cc1
inactive: [12] 95 % of control | [5] 90 % of control | [4] 95 % of control | [6] 93 % of control | [13] 91 % of control

CC1(C)N=C(N)N=C(N)N1c1cccc(/C=C/C=C/c2cccc([N+](=O)[O-])c2)c1
inactive: [2] 95 % of control | [3] 91 % of control | [4] 89 % of control

N=C(N)c1ccc(OCCOc2ccc(N)cc2)cc1
inactive: endpoint: mean survival time, dose: 100.0 mg/kg/injection, schedule: Q01DX001 (ip), vehicle: saline with Tween-80 103 % of control | endpoint: mean survival time, dose: 200.0 mg/kg/injection, schedule: Q01DX001 (ip), vehicle: saline with Tween-80 103 % of control

CC1(C(=O)c2ccccc2)OC1c1ccccc1 (configuration not stated)
inactive: [14] 103 % of control | [15] 103 % of control | [16] 98 % of control

CC(C)(C)N1CCCC1
inactive: [14] 96 % of control

Oc1ccc(SSc2ccc(O)cc2)cc1
inactive: endpoint: mean survival time, dose: 100.0 mg/kg/injection, schedule: Q01DX009 (ip), vehicle: other 98 % of control | endpoint: mean survival time, dose: 200.0 mg/kg/injection, schedule: Q01DX009 (ip), vehicle: other 101 % of control | endpoint: mean survival time, dose: 400.0 mg/kg/injection, schedule: Q01DX009 (ip), vehicle: other 104 % of control

O=C(c1ccccc1)N(C(=O)c1ccccc1)c1cccc(N(C(=O)c2ccccc2)C(=O)c2ccccc2)n1
inactive: endpoint: mean survival time, dose: 50.0 mg/kg/injection, schedule: Q04DX002 (ip), vehicle: saline with Tween-80 101 % of control | [17] 97 % of control | [18] 93 % of control

C=C[Si](C)(C=C)C=C
inactive: [19] 95 % of control | [8] 91 % of control | endpoint: mean survival time, dose: 200.0 mg/kg/injection, schedule: Q01DX009 (ip), vehicle: saline 97 % of control | [9] 98 % of control | endpoint: mean survival time, dose: 400.0 mg/kg/injection, schedule: Q01DX009 (ip), vehicle: saline 93 % of control | [10] 98 % of control

N=[N+]=CC(=O)CC(N)C(=O)O (configuration not stated)
inactive: endpoint: median survival time, dose: 400.0 mg/kg/injection, schedule: Q01DX001 (ip), vehicle: saline 111 % of control | endpoint: median survival time, dose: 800.0 mg/kg/injection, schedule: Q01DX001 (ip), vehicle: saline 112 % of control | endpoint: median survival time, dose: 1600.0 mg/kg/injection, schedule: Q01DX001 (ip), vehicle: saline 25 % of control

O=C(OCC(O)C(O)C(O)C(O)COC(=O)c1ccccc1)c1ccccc1 (configuration not stated) (tested in a mixture with another compound)
inactive: [12] 98 % of control | [5] 110 % of control | [6] 98 % of control

C=C(Cl)C(C)(C)C
inactive: endpoint: mean survival time, dose: 25.0 mg/kg/injection, schedule: Q01DX001 (ip), vehicle: saline 98 % of control | endpoint: mean survival time, dose: 50.0 mg/kg/injection, schedule: Q01DX001 (ip), vehicle: saline 104 % of control | endpoint: mean survival time, dose: 100.0 mg/kg/injection, schedule: Q01DX001 (ip), vehicle: saline 100 % of control

CC(=O)C/C=C(\C)CCC=C(C)C
inactive: [14] 91 % of control | [15] 94 % of control | [16] 98 % of control

NC(CS)=NC1CN2CCC1CC2 (configuration not stated)
inactive: endpoint: mean survival time, dose: 50.0 mg/kg/injection, schedule: Q04DX002 (ip), vehicle: saline 115 % of control | [8] 101 % of control

O=C(O)CC12CCCCC1CCCC2 (configuration not stated)
inactive: [14] 95 % of control | [15] 91 % of control | [16] 90 % of control

O=C1c2ccccc2C(=O)N1C(=S)N1C(=O)c2ccccc2C1=O
inactive: [17] 96 % of control | [18] 92 % of control | endpoint: mean survival time, dose: 400.0 mg/kg/injection, schedule: Q04DX002 (ip), vehicle: saline with Tween-80 92 % of control

O=C1C(Br)=C(Br)C(=O)C1(Br)Br
inactive: endpoint: mean survival time, dose: 6.25 mg/kg/injection, schedule: Q01DX009 (ip), vehicle: saline with Tween-80 97 % of control | endpoint: mean survival time, dose: 12.5 mg/kg/injection, schedule: Q01DX009 (ip), vehicle: saline with Tween-80 103 % of control | [11] 92 % of control

Cc1ccc(S(=O)(=O)NNC(=O)C2(C)CC2(C)C(=O)O)cc1 (configuration not stated)
inactive: [5] 96 % of control | [6] 96 % of control | [7] 100 % of control

CCN=NNc1ccc(C)cc1
inactive: [12] 114 % of control | [5] 106 % of control | [4] 102 % of control | [13] 100 % of control

CCN(CC)CCCCNc1ccc(NCCCCN(CC)CC)c2c1C(=O)c1ccccc1C2=O
inactive: endpoint: mean survival time, dose: 25.0 mg/kg/injection, schedule: Q01DX009 (ip), vehicle: saline 109 % of control | endpoint: mean survival time, dose: 50.0 mg/kg/injection, schedule: Q01DX009 (ip), vehicle: saline 90 % of control | [19] 95 % of control

Cc1c2ccccc2cc2cc[n+]3ccccc3c12
inactive: endpoint: mean survival time, dose: 10.0 mg/kg/injection, schedule: Q01DX009 (ip), vehicle: Klucel (hydroxypropylcellulose) (HPC) 92 % of control | endpoint: mean survival time, dose: 20.0 mg/kg/injection, schedule: Q01DX009 (ip), vehicle: Klucel (hydroxypropylcellulose) (HPC) 103 % of control | endpoint: mean survival time, dose: 40.0 mg/kg/injection, schedule: Q01DX009 (ip), vehicle: Klucel (hydroxypropylcellulose) (HPC) 92 % of control

OCCN=Cc1cccs1
inactive: [5] 101 % of control | [6] 95 % of control | [7] 110 % of control

COC(=O)C1C2CC(C(Br)C2Br)C1C(=O)O (configuration not stated)
inactive: [5] 96 % of control | [4] 96 % of control | [6] 98 % of control | [13] 96 % of control and 94 % of control | [7] 97 % of control | endpoint: mean survival time, dose: 400.0 mg/kg/injection, schedule: Q04DX003 (ip), vehicle: saline with Tween-80 88 % of control and 98 % of control
